One compound from patent US12202835B2, “Substituted aromatic ring-linked dioxinoquinazolines and dioxinoquinolines as kinase inhibitors” (BEIJING SCITECH-MQ PHARMACEUTICALS LIMITED, priority 2018, dated 2025) can be followed below.

The structures appear in SMILES notation.

As a reminder, the IC50 is the concentration needed to halve the response being measured.

The target in one assay is VEGFR-2 kinase (Homo sapiens (Human), UniProt P35968). Put plainly: Assay of small molecular compounds for inhibiting the activity of VEGFR-2 kinase (LANCE TR-FRET). In kind it is biochemical. As to conditions: read-out: VEGFR2 IC50. How it is done: The assay is based on the LANCE TR-FRET technology of Perkin Elmer Inc., and the assay method is as follows: • 1. Dilution of compounds: a total of 11 concentrations were obtained using a 3-fold gradient dilution from the highest concentration of 2500 nM (the maximum final concentration of the drug used in this assay was 2500 nM, and the minimum final concentration was 0.042 nM). • 2. 2.5 μL of the gradient-diluted compounds were taken with a transfer pipette to a 384-well plate. • 3. Addition of enzyme: 5 μL of 2×VEGFR2 kinase solution (with a concentration of 0.5 nM) was taken with a transfer pipette to the corresponding reaction well of the 384-well plate, mixed well and pre-reacted at room temperature for 30 minutes. • 4. 2.5 μL 4× Ultra ULight™-JAK-1 (Tyr1023) Peptide (with a concentration of 200 nM)/ATP (with a concentration of 40 μM) mixture was taken with a transfer pipette to the corresponding reaction well of the 384-well plate. • 5. Negative control: 2.5 μL/well 4× substrate/ATP mixture and 7.5 μL 1× Kinase Assay Buffer were added to the wells of the 384-well plate. • 6. Positive control: 2.5 μL/well 4× substrate/ATP mixture, 2.5 μL/well 1× Kinase Assay Buffer containing 16% DMSO, and 5 μL/well 2×VEGFR-2 kinase solution were added to the 384-well plate. The final concentration of DMSO in the reaction system was 4%. • 7. The mixture was mixed well and then centrifuged and reacted at room temperature in dark for 60 min. • 8. Termination of the enzymatic reaction: 5 μL of 4× stop solution was taken with a transfer pipette to the wells of the 384-well plate, mixed and then centrifuged, and reacted at room temperature for 5 min. • 9. Development of the reaction: 5 μL of 4× detection solution was taken with a transfer pipette to the wells of the 384-well plate for color development, and the mixture was mixed and then centrifuged and reacted at room temperature for 60 min. • 10. The 384-well plate was placed into the Envision plate reader and the signal was detected using the appropriate program. • 11. Analysis and processing of the raw data: The drug concentrations and the corresponding inhibition rates were input into GraphPad Prism5 for calculation, and the inhibition rate of the compounds were calculated as follows: inhibition rate (%)=(reading of positive well−reading of experimental well)/(reading of positive control well−reading of negative control well)×100%. Processing with GraphPad Prism5 software yielded the corresponding IC50 values (the concentration of the compound at which 50% of the highest inhibition of the enzyme is achieved).
(In general: Time-resolved FRET reads energy transfer from a long-lived donor to a nearby acceptor.)

Another assay relates to Ba/F3-AXL cells. Put plainly: Assay for inhibiting the proliferation of Ba/F3-AXL cells (CCK-8). In kind it is cell-based. The following applies: 72 hours of incubation, medium with 100 ng/mL hGas6, CCK-8. How it is done:
The values were then imported into Graphpad Prism 5 software for curve fitting, and IC50 was calculated.

The next assay relates to MHCC97H cells. Nature of the assay: Assay for inhibiting the proliferation of MHCC97H cells (CCK-8). In kind it is cell-based. The following applies: Homo sapiens. As for the experimental part: (§1) In particular, the method of the assay of small molecular compounds for inhibiting cell proliferation is as follows: • 1. Cells cultured to a logarithmic growth phase (adherent cells need to be digested with trypsin and neutralized) were taken, pipetted evenly, transferred to a 15 mL centrifuge tube, and centrifuged at 1000 rpm at room temperature for 4 minutes; • 2. The supernatant was discarded; 5 mL of complete medium was added and pipetted evenly; 10 μL of cell suspension was taken out, mixed well with 10 μL of 0.4% trypan blue, and counted under a cell counter; the proportion of living cells was ensured to be above 90%; • 3. 80 μL of cell suspension per well was seeded into a 96-well plate according to the conditions shown in the attached table, and cultured overnight; in the outer 36 wells of the 96-well plate, no cells were added but only sterile water was added; only the inner 60 wells were used for cell assay and control; • 4. 5×compound dilution: the compounds were serially diluted 3-fold to obtain a total of 9 concentrations; 80-fold overall dilution was completed with complete medium, the resulting concentration was 5 times the final drug concentration, and DMSO concentration was 1.25%; • 5. 20 μL of the corresponding compounds with different concentration gradients were added to each well of assay wells of the 96-well plate; 20 μL of complete medium was added to positive and negative control wells and shaken well; and the final concentration of DMSO in each well was 0.25%; • 6. After 72 hours of incubation, 10 μL of CCK-8 reagent was added to each well and further incubated at 37° C. for 1-2 hours; and the OD value was read at 450 nm; • 7. Cell survival rate (%)=[(As−Ab)/(Ac−Ab)]*100% • As: Assay well (medium containing cells, CCK-8, compound), • Ac: Control well (medium containing cells, CCK-8), • Ab: Blank well (CCK-8, medium without cell and compound), • 8. The values were imported into Graphpad Prism 5 software for IC50 calculation.

Another assay has as its system Ba/F3 LMNA-NTRK1 cells. Put plainly: Assay for inhibiting the proliferation of Ba/F3 LMNA-NTRK1 cells (CCK-8). Type of assay: cell-based. As to conditions: Mus musculus, BaF3. The method in brief:
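Viability was read as absorbance at 450 nm following 1–2 h CCK-8 incubation at 37 °C, relative to control and blank wells.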

Assay [1] relates to Ba/F3 LMNA-NTRK1-G595R cells. Put plainly: Assay for inhibiting the proliferation of Ba/F3 LMNA-NTRK1-G595R cells (CCK-8). In kind it is cell-based. As to conditions: Mus musculus, BaF3. As for the experimental part: as §1
For another assay, the system named is EBC1 cells. Nature of the assay: Assay for inhibiting the proliferation of EBC1 cells (CCK-8). In kind it is cell-based. As to conditions: Homo sapiens, EBC-1. As for the experimental part: as §1

Chain of VEGFR-2 kinase (P35968 20-1356): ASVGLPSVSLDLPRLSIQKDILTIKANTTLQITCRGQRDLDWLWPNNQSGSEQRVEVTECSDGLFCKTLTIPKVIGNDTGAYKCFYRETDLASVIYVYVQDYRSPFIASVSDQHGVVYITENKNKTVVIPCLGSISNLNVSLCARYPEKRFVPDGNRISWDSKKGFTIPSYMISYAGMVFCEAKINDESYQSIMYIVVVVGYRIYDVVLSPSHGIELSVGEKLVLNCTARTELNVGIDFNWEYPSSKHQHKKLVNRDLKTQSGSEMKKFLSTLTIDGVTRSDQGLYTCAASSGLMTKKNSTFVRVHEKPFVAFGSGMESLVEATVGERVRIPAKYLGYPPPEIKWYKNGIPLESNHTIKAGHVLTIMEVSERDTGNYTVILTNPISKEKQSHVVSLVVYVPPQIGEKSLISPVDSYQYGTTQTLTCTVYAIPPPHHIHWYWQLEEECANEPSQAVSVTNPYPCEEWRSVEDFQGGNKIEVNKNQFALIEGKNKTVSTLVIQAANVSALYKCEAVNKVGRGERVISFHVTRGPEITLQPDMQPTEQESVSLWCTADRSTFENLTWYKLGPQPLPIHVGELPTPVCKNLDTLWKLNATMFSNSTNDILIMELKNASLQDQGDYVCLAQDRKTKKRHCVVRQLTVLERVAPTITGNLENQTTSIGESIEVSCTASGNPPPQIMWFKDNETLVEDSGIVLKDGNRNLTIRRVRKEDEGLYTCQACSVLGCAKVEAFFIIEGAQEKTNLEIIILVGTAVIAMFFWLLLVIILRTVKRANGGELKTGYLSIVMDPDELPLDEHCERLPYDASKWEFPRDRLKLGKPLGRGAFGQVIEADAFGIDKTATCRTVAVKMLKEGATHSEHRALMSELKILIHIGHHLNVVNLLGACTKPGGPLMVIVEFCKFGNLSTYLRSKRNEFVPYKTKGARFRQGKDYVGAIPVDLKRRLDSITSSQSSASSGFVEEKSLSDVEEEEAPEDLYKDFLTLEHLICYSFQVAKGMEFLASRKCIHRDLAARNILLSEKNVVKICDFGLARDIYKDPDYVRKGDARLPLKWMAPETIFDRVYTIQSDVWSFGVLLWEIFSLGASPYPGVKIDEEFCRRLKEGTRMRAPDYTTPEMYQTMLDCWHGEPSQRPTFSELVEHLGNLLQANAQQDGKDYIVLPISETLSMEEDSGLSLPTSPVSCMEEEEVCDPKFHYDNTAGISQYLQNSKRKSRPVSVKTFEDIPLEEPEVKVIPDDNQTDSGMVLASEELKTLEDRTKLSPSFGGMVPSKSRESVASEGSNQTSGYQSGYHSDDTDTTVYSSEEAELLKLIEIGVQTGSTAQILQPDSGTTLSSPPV

With `CN(C)CCCOc1cc2nccc(Oc3ccc(NC(=O)c4cn(C)c(=O)n(-c5ccc(F)cc5)c4=O)cc3F)c2c2c1OCCO2` [Example 86, N-(3-fluoro-4-((5-((3-dimethylamino)propoxy)-2,3-dihydro-[1,4]dioxino[2,3-f]quinolin-10-yl)oxy)phenyl)-3-(4-fluorophenyl)-1-methyl-2,4-dioxo-1,2,3,4-tetrahydropyrimidine-5-carboxamide], the IC50 on VEGFR-2 kinase is 50 to 500 nM; with Ba/F3-AXL cells it was under 50 nM; in the assay on MHCC97H cells, 50 to 200 nM; with Ba/F3 LMNA-NTRK1 cells, under 50 nM; in assay [1], 50 to 200 nM; in the assay on EBC1 cells, at most 50 nM.
